Measured values as given in publication PMC4194234 (Psychopharmacology, 2014).
Read-outs that look alike come from different tables or passages of the source.

Key:
[1] = target: T1, 5-HT2A receptor (Homo sapiens, UniProt P28223); assay: cell-based; assay type: cell-based; conditions: for 5-HT2A β-arrestin recruitment activity (in words) / 5-HT2A β-arrestin Emax: CHOk1; for 5-HT2A β-arrestin recruitment activity (in words): screened at 10 µM; for Emax: CHO-K1, read-out: 5-HT2A β-arrestin Emax; for 5-HT2A β-arrestin Emax: β-arrestin recruitment, mean ± SEM, three experiments in duplicate
Target sequence in this assay (P28223 whole entry): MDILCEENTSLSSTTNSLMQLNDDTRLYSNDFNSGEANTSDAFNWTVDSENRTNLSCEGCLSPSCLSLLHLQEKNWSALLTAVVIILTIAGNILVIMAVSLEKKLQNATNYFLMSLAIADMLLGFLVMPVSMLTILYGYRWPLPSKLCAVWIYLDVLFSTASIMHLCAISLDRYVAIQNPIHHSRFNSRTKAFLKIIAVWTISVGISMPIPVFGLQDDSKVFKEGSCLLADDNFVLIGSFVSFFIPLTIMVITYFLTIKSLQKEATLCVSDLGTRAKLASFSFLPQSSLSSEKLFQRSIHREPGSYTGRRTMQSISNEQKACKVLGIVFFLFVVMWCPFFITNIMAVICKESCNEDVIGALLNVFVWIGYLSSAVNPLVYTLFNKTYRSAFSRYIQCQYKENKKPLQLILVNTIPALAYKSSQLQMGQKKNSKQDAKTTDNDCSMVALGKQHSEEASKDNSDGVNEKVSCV
Target sequence in this assay (P32121 whole entry, further chain): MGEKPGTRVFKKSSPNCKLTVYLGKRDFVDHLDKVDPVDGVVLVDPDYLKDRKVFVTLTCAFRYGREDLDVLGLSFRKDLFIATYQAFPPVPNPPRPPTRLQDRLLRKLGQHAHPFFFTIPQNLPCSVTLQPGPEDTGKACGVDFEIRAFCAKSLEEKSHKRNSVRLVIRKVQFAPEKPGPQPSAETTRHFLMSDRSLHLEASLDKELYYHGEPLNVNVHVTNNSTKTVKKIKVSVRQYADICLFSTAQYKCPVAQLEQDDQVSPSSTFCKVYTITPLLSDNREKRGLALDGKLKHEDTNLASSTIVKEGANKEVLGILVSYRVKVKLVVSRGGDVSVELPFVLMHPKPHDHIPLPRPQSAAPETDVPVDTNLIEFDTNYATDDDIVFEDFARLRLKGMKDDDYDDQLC

[2] = target: T2, 5-HT1A receptor (Homo sapiens, UniProt P08908); assay: 5-HT1A calcium mobilization assay in Gα16-CHO cells; assay type: cell-based; conditions: for 5-HT1A Emax: calcium mobilization, Gα16-CHO, mean ± SEM, three experiments in duplicate
T2 sequence (P08908 1-422): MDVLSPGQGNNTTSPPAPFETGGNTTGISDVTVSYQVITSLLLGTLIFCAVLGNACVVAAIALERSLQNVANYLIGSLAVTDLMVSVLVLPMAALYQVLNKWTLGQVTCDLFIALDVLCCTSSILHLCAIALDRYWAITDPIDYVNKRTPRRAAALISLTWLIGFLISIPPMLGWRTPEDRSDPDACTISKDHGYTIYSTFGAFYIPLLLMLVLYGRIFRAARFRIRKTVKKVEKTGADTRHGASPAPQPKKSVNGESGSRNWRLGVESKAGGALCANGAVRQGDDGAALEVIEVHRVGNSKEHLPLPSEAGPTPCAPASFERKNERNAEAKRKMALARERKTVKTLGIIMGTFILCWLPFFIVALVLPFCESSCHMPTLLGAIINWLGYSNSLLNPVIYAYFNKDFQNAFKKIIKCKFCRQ

[3] = target: T3, Dopamine Transporter (DAT) (Rattus norvegicus, UniProt P23977); assay: DAT-mediated release, rat striatum synaptosomes
[4] = target: T4, SERT (Rattus norvegicus, UniProt P31652); assay: SERT-mediated release, rat brain synaptosomes; conditions: for 5-HT releasing activity at SERT (in words): rat brain synaptosomes
[5] = target: T5, Norepinephrine Transporter (NET) (Rattus norvegicus, UniProt Q63380); assay: NET-mediated release, rat brain synaptosomes; assay type: biochemical
[6] = target: T1, 5-HT2A receptor; assay: cell-based; assay type: cell-based; conditions: for Emax: HEK293, read-out: 5-HT2A Emax; for 5-HT2A Emax: calcium mobilization, mean ± SEM, three experiments in duplicate; for 5-HT2A Emax / 5-HT2A agonist activity in calcium mobilization assay (in words): HEK293
Target sequence in this assay (P28223 whole entry): as the sequence (P28223 whole entry) above

[7] = tested on: humans; conditions: tabulated from anecdotal reports in TiHKAL, ref Shulgin and Shulgin 1997; cited from earlier work
[8] = target: T4, SERT; assay: [3H]5-HT uptake inhibition, rat brain synaptosomes; conditions: for 5-HT uptake inhibitor activity at SERT (in words): rat brain synaptosomes
[9] = target: T3, Dopamine Transporter (DAT); assay: [3H]DA uptake inhibition, rat striatum synaptosomes
[10] = target: T5, Norepinephrine Transporter (NET); assay: [3H]NE uptake inhibition, rat brain synaptosomes; assay type: biochemical

T4 sequence (P31652 whole entry): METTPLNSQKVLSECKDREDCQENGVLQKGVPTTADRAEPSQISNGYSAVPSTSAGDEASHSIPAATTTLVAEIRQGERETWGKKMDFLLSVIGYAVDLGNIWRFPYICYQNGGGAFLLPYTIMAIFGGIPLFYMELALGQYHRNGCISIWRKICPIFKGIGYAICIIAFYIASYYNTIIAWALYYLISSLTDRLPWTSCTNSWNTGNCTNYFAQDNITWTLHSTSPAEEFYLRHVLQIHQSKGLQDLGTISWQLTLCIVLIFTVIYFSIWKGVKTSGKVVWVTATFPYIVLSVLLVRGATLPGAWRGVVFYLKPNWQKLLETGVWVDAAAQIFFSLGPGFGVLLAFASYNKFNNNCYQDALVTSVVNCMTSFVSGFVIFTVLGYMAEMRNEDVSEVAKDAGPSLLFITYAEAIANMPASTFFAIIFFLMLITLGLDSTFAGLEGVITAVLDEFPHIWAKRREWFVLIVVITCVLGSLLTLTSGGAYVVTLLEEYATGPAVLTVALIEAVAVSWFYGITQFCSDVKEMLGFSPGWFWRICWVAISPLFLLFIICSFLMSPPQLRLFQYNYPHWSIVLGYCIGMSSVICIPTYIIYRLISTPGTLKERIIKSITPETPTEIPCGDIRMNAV
T3 sequence (P23977 whole entry): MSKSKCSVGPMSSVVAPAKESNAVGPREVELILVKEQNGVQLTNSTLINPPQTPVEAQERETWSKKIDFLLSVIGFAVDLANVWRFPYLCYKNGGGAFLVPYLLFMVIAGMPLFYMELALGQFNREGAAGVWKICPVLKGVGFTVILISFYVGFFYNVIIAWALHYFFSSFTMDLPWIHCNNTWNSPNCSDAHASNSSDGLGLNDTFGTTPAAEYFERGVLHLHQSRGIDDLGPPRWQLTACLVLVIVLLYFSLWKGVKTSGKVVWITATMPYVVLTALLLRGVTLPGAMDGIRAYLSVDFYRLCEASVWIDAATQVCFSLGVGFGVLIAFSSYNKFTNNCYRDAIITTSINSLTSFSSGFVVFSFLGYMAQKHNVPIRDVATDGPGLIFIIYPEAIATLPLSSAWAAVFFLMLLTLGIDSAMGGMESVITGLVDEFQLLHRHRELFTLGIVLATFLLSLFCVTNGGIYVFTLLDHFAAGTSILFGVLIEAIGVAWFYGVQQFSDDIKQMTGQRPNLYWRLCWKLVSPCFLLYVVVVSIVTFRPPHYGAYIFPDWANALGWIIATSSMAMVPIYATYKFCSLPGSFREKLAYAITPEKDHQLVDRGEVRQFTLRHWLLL
T5 sequence (Q63380 1-617): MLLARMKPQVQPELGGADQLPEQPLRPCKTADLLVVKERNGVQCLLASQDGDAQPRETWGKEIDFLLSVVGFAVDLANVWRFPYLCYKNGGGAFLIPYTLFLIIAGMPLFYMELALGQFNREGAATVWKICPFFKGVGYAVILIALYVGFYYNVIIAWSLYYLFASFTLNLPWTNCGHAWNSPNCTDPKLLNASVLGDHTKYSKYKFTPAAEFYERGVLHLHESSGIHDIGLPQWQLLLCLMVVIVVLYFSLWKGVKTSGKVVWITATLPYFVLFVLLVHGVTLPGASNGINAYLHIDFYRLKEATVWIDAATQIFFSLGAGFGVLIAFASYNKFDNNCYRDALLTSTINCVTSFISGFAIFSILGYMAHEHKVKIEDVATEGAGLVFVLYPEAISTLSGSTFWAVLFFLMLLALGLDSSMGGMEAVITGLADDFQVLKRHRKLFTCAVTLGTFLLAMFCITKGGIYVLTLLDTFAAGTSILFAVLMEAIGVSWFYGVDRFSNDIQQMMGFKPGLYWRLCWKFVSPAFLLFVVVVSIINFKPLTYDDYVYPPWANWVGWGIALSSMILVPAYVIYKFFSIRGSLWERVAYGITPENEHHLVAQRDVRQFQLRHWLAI

CNCCc1c[nH]c2ccccc12 [Compound 14, N-methyltryptamine]
EC50 [1]: > 10 µM | 5-HT2A β-arrestin recruitment activity (in words) [1]: inactive | EC50 [2]: > 10 µM

CCNCCc1c[nH]c2ccc(OC)cc12 [Compound 18, 5-methoxy-N-ethyltryptamine]
EC50 [3]: > 10 µM | EC50 [1]: 0.568 ± 0.174 µM | Emax [1]: 103 ± 12% | 5-HT2A β-arrestin recruitment activity (in words) [1]: fully efficacious | EC50 [2]: 0.262 ± 0.027 µM | EC50 [4]: 0.284 ± 0.0416 µM | 5-HT releasing activity at SERT (in words) [4]: releasers | EC50 [5]: > 10 µM | Emax [6]: 112 ± 3%

CN(C)CCc1c[nH]c2ccc(O)cc12 [Compound 16, N,N-dimethyl-5-hydroxytryptamine]
EC50 [3]: > 10 µM | Psychoactive Effects [7]: Some visuals (lines and dots), tightness in chest, nausea, breathing issues, mind feels crowded | EC50 [2]: 0.366 ± 0.067 µM | EC50 [5]: > 10 µM

CCCN(CCC)CCc1c[nH]c2ccccc12 [Compound 21]
5-HT2A β-arrestin Emax [1]: 63 ± 8% | Psychoactive Effects [7]: Intensely visual, long lasting, things appear fast, religious experiences | 5-HT2A Emax [6]: 97 ± 3%

CN(C)CCc1c[nH]c2cccc(O)c12 [Compound 24, Psilocin]
IC50 [8]: 0.662 ± 0.041 µM | Psychoactive Effects [7]: Very visual, lots of colors, better at night | IC50 [9]: > 10 µM | IC50 [10]: > 10 µM | Emax [6]: 76 ± 7%

CN(C)CCc1c[nH]c2ccccc12 [Compound 6, N,N-dimethyltryptamine]
EC50 [3]: > 10 µM | EC50 [1]: > 10 µM | 5-HT2A β-arrestin recruitment activity (in words) [1]: inactive | Psychoactive Effects [7]: Heavy intoxicant and hallucinogen, visuals, intense colors | EC50 [4]: 0.114 ± 0.015 µM | EC50 [5]: 4.17 ± 0.317 µM | Emax [6]: 83 ± 0.4%

COc1ccc2[nH]cc(CCN(C)C(C)C)c2c1 [Compound 2, N-isopropyl-N-methyl-5-methoxytryptamine]
IC50 [8]: > 10 µM | 5-HT uptake inhibitor activity at SERT (in words) [8]: totally inactive | EC50 [1]: 0.566 ± 0.11 µM | Emax [1]: 82 ± 13% | Psychoactive Effects [7]: Fast onset, stimulates conceptual thought, depersonalization | IC50 [9]: > 10 µM | EC50 [2]: > 10 µM | IC50 [10]: > 10 µM | 5-HT2A agonist activity in calcium mobilization assay (in words) [6]: low nanomolar potency | Emax [6]: 101 ± 3%

COc1ccc2[nH]cc(CCNC(C)C)c2c1 [Compound 27]
5-HT2A β-arrestin Emax [1]: 99 ± 6% | 5-HT2A agonist activity in calcium mobilization assay (in words) [6]: low nanomolar potency | 5-HT2A Emax [6]: 101 ± 2%

COc1ccc2[nH]cc(CCN)c2c1 [Compound 25]
Psychoactive Effects [7]: Not particularly active, possibly due to metabolism similar to 12 | 5-HT1A Emax [2]: 66 ± 4%

CCN(CC)CCc1c[nH]c2ccc(OC)cc12 [Compound 26]
5-HT2A β-arrestin Emax [1]: 64 ± 8% | Psychoactive Effects [7]: Auditory changes, negative experiences, anxiety | 5-HT1A Emax [2]: 67 ± 2% | 5-HT2A agonist activity in calcium mobilization assay (in words) [6]: low nanomolar potency | 5-HT2A Emax [6]: 101 ± 0.8%

CC(C)NCCc1c[nH]c2ccccc12 [Compound 20]
Psychoactive Effects [7]: Light-headed intoxicant, pleasant buzz | 5-HT2A Emax [6]: 96 ± 3%

NCCc1c[nH]c2ccccc12 [Compound 12, Tryptamine]
Emax [1]: 108 ± 16% | Psychoactive Effects [7]: Psychoactive, short acting due to metabolism, increased blood pressure, similar to LSD | 5-HT releasing activity at SERT (in words) [4]: releasers

CCCN(CCC)CCc1c[nH]c2ccc(OC)cc12 [Compound 28]
5-HT2A β-arrestin Emax [1]: 68 ± 2% | Psychoactive Effects [7]: Comfortable at low doses, oscillating good and bad sounds, negative side dominated as buzz continues | 5-HT1A Emax [2]: 43 ± 5% | 5-HT2A agonist activity in calcium mobilization assay (in words) [6]: low nanomolar potency | 5-HT2A Emax [6]: 101 ± 3%

CC(C)N(CCc1c[nH]c2ccccc12)C(C)C [Compound 22]
Psychoactive Effects [7]: Auditory, not visual, heard voices, sounds had “golden spikes”, religious overtones | 5-HT2A Emax [6]: 110 ± 2%

CC(N)Cc1c[nH]c2ccccc12 (stereo not drawn) [Compound 13]
Psychoactive Effects [7]: Psychedelic but varied, fast/slow onset, good/bad experiences, long lasting, no visuals, speed-like, tachycardia, jaw clenching

CC(C)N(C)CCc1c[nH]c2ccccc12 [Compound 23]
5-HT uptake inhibitor activity at SERT (in words) [8]: totally inactive | Psychoactive Effects [7]: Mild hallucinations, stimulant, fast onset, psychedelic | 5-HT2A Emax [6]: 74 ± 5%

COc1ccc2[nH]cc(CCN(C)C)c2c1 [Compound 7, N,N-dimethyl-5-methoxytryptamine]
IC50 [8]: 2.18 ± 0.222 µM | Emax [1]: 56 ± 6% | Psychoactive Effects [7]: Time distortions, stoned feeling, hallucinogenic at high doses | IC50 [9]: > 10 µM | 5-HT1A Emax [2]: 68 ± 3% | IC50 [10]: > 10 µM | 5-HT2A agonist activity in calcium mobilization assay (in words) [6]: low nanomolar potency | Emax [6]: 101 ± 4%

CNCCc1c[nH]c2ccc(OC)cc12 [Compound 17]
5-HT2A β-arrestin Emax [1]: 66 ± 9% | 5-HT1A Emax [2]: 72 ± 4% | 5-HT releasing activity at SERT (in words) [4]: releasers | 5-HT2A Emax [6]: 84 ± 20%

CCN(CC)CCc1c[nH]c2ccccc12 [Compound 19]
Fold more potent at SERT uptake inhibition than 5-MeO-DET ([8]; DET versus 5-MeO-DET (26)): 10 fold | Psychoactive Effects [7]: Psychoactive, visuals, vertigo | 5-HT2A Emax [6]: 90 ± 6%

COc1ccc2[nH]cc(CCN(C(C)C)C(C)C)c2c1 [Compound 1, N,N-diisopropyl-5-methoxytryptamine]
IC50 [8]: 0.646 ± 0.048 µM | Emax [1]: 124 ± 12% | Psychoactive Effects [7]: Erotic, senses distorted, short-lived, could not make intuitive leaps | IC50 [9]: > 10 µM | EC50 [2]: > 10 µM | IC50 [10]: > 10 µM | 5-HT2A agonist activity in calcium mobilization assay (in words) [6]: low nanomolar potency | Emax [6]: 109 ± 5%
